Experimental data as given in patent US20130244875A1, “METHODS AND COMPOSITIONS FOR IMPROVING PLANT HEALTH” (priority 2006, published 2013).
Several values for one entry are separate records, joined by “and”; a condition that tells them apart may be missing. Identical values can stand only once.

How the values were obtained:
soybean plants [1] = test: Ozone tolerance of soybeans; assay type: in vivo; details: 0.5 lbs/A DCSA about 72 hours before, 10 hours
Experimental: Many plants are sensitive to ozone (O3), soybeans are particularly sensitive to ozone damage and show leaf flecking and chlorosis. Ozone can be produced in the atmosphere by a photochemical process in air polluted environments. Soybean production can be affected by ozone when soybeans are cultivated near urban areas or air pollution from urban areas is distributed to agricultural areas where soybeans are grown. An experiment was conducted to determine if DCSA treatment of soybean plants will provide tolerance to oxidative stress caused by ozone. Soybeans were treated with 0.5 lbs/A DCSA approximately 72 hours before exposure to ozone. Controls had no DCSA treatment. Four plants were treated with ozone in one 72 quart sterilite container with a clear plexiglass lid. Ozone was generated at 2 concentrations in the container with the plants at a low rate (2.8 ppm, parts per million) or a high rate (770 ppm) and the plants exposed for 10 hours at these concentrations. Light levels at plant height were ˜400μ Einsteins m-2 s-1, enough to insure photosynthesis. Air in the container was mixed using a small fan to insure proper exposure. Plants were removed from the treatment container and placed in a growth chamber to observe symptom development.

Meloidogyne incognita = test: Control of cotton root knot nematode (RKN) by DCSA; assay type: in vivo
Experimental: DCSA was unexpectedly found to control RKN gall formation, improve plant height and reduce number of eggs produced by the nematode in cotton plants (ST474) (Table 5). Ten to fourteen days old cotton plants were treated with DCSA at the rate of 1 lb/A, 24 hrs before inoculating them with RKN eggs. […] Plant height, gall rating, and egg counts were measured 45 days after inoculation. The gall rating scale was 0-5 with 0=no visible galling and 5=heavy galling.

PR5 = test: Induction of PR5 (northern blot) by dicamba or DCSA; assay type: in vivo, soybean; details: probe specific to PR5; procedures as for PR2
[2] = test system: Verticillium (isolate King); test: Verticillium wilt protection in cotton, isolate King; assay type: in vivo, Verticillium dahliae; details: cotton ST6611, DCSA 1 lb/A, glyphosate 0.75 lb/A, 24 hours before inoculation
Text: (§1) DCSA was unexpectedly found to provide protection to cotton plants against Verticillium dahliae, causal agent of cotton wilt disease (Table 6). Cotton plants of the variety ST6611, BOLLGARD 2, ROUNDUP READY FLEX, were inoculated with a moderate isolate (DPL) or a virulent isolate (King) of Verticillium by a seedling dipping method. Seedlings at the first true leaf stage were taken out from the pots, one inch of roots were cut off, seedlings were dipped in a spore slurry for one minute, and then transplanted back in the pots. These strains were isolated and provided by Dr. Terry Wheeler (Texas A&M University, TX USA). DCSA was applied at the rate of 1 lb/A and glyphosate (ROUNDUP WEATHERMAX, Monsanto Company, St. Louis, Mo.) at the rate of 0.75 lb/A 24 hours before inoculation. Protection against Verticillium was measured on a disease severity scale of 1-9:1 being healthy and 9 being dead because of disease, and also was measured as the number of plants that survived out of 10 inoculated plants.

[3] = test system: PR-2, i.e., β-1,3-glucanase; test: Induction of PR2 (northern blot) in DMO soybean sprayed with dicamba or DCSA; assay type: in vivo; details: two transgenic soybean lines; 0.25, 0.5 and 1 lb/Acre; 24 hrs after treatment; no induction in untreated or water only
Experimental: A 14 hour minimum photoperiod was provided with supplemental light at about 600 μE (micro-Einsteins) as needed. Trials were established in a randomized block design randomized by rate with 4 to 6 replications of each treatment.
All herbicide applications were made with the track sprayer using a Teejet® 9501E flat fan nozzle (Spraying Systems Co, Wheaton, Ill.) with air pressure set at a minimum of 24 psi (pounds per square inch), or 165 kpa (kilopascals)). The spray nozzle was kept at a height of about 16 inches above the top of plant material for spraying. The spray volume was 10 gallons per acre or 93 liters per hectare. Applications were made when plants had reached V-3 stage.
Events carrying a DMO transgene in their genome were grown and treated with dicamba (Clarity®, BASF) at 1 lb/Acre at Post-V3 stage. Leaf samples were harvested after 0, 3, 8, 24, 48, 72 hrs after treatment (HAT) and frozen for further analysis. In another experiment, DMO-containing plants were sprayed with either dicamba or DCSA at 0.25, 0.5 and 1 lb/Acre rate and tissue samples were collected 24 HAT. RNA was extracted and analyzed by northern blot analysis using PR-2, i.e., β-1,3-glucanase as a probe. PR-2 is a pathogenesis-related protein known to degrade […] and thus provide protection against fungal pathogens (U.S. Pat. No. 5,670,706 and Uknes et al., 1992).

soybean plants [4] = test: Copper injury on soybeans; assay type: in vivo; details: DCSA 0.5 lb/A as tank mix or pretreatment 1 hr or 24 hr before 1000 ppm copper; reduced from 45%
Text: Plants are sensitive to heavy metal toxicity. Heavy metals are present in the environment or sometimes applied to plants for pest control. Symptoms of plant injury following treatment with a heavy metal compound, for example, a compound containing copper, are necrotic leaf spotting and flecking with more severe injury resulting in larger reddish brown spots, […] necrosis and/or necrotic puckered leaves.

[5] = test system: Verticillium (isolate DPL); test: Verticillium wilt protection in cotton, isolate DPL; assay type: in vivo, Verticillium dahliae; details: cotton ST6611, DCSA 1 lb/A, glyphosate 0.75 lb/A, 24 hours before inoculation
Text: as §1

[6] = test system: wheat seed (spring wheat variety); test: Wheat seed germination in DCSA solution; assay type: in vivo; design: key: 1—low; 2—moderate; 3—high; 3+—exceptionally high; details: 22° C., 2DAT, water 1
Experimental: Wheat seed (spring wheat variety) was germinated in a solution of 0.1, 1, 10, 100, or 1000 μM DCSA or water at 22° C. and rated 2 DAT for germination using the same rating scale as used for soybean.

[7] = individual cotton (ST474) plants 1-8, DCSA 1 lb/A 24 hrs before RKN eggs, 45 days after inoculation

With `O=C(O)c1c(Cl)ccc(Cl)c1O` [DCSA, 3,6-dichloro salicylic acid] the ozone damage symptoms (soybean plants [1]; high ozone rate 770 ppm, control lower leaves visibly damaged) was “did not show any lower leaf damage”, the ozone damage symptoms (soybean plants [1]; low ozone rate 2.8 ppm, controls also without symptoms) was “no symptoms were observed” and the “Egg Count/pot” value (Meloidogyne incognita; [7]) was 8,160 and 9,120 and 5,200 and 3,720 and 3,360 and 3,040 and 1,800 and 2,200. For the same compound, the “Plant Height (cm)” value (Meloidogyne incognita; [7]) was 25.4 cm (3×) and 22.2 cm and 17.8 cm and 14.0 cm and 15.9 cm and 12.7 cm, the “RKN Gall Rating (0-5)” value (Meloidogyne incognita; individual plants 1-8, 0=no visible galling, 5=heavy galling, 45 days after inoculation) was 0 (4×) and 2 and 1 (3×) and the “RKN Gall Rating (0-5), Mean” value (Meloidogyne incognita; mean of 8 plants, RKN alone 2.6) was 0.6. The “Plant Height (cm), Mean” value (Meloidogyne incognita; mean of 8 plants, RKN alone 16.9) was 19.8 cm, the “induction of PR5” value (PR5) was “Induction of PR5” and the “Severity rating (1-9)” value ([2]; 1 healthy, 9 dead, inoculated check 9) was 2. For the same compound, the “Plant survival rating (out of 10)” value ([2]; inoculated check 0) was 10, the “induction of PR2 at various rates” value [3] was “induction of PR2” and the Soybean injury levels (soybean plants [4]) was 24-33%. The “Severity rating (1-9)” value ([5]; 1 healthy, 9 dead, inoculated check 5) was 1, the “Plant survival rating (out of 10)” value ([5]; inoculated check 8) was 10 and the germination rating ([6]; 0.1 μM DCSA) was 1. It also gave a germination rating ([6]; 1 μM DCSA) of 1, a germination rating ([6]; 10 μM DCSA) of 3 and a germination rating ([6]; 100 μM DCSA) of 2. For the same compound, the germination rating ([6]; 1000 μM DCSA) was 3.
